In ChEMBL document CHEMBL1158034, “Synthesis and cytotoxicity of racemic isodeoxypodophyllotoxin analogues with isoprene-derived side chains” (J Nat Prod, 2006):

Legend:
Type in all cases: functional, cell-based
HL-60 = test: Cytotoxicity against human HL-60 cells after 72 hrs by MTT assay; conditions: HL-60, 72 h
KB = test: Cytotoxicity against human KB cells after 72 hrs by MTT assay
[1] = Cytotoxicity against human BEL-7404 cells after 72 hrs by MTT assay; conditions: BEL-7404, 72 h
A549 = test: Cytotoxicity against human A549 cells after 72 hrs by MTT assay; conditions: A549, 72 h

Structure (SMILES)	IC50 (HL-60) [µM]	IC50 (KB) [µM]	IC50 [1] [µM]	IC50 (A549) [µM]
COc1cc([C@@H]2c3cc4c(cc3[C@@H](O[C@@H]3O[C@@H]5CO[C@@H](C)O[C@H]5[C@H](O)[C@H]3O)[C@H]3COC(=O)[C@H]23)OCO4)cc(OC)c1O [ETOPOSIDE]	10.5	–	–	–
COc1cc2c(cc1OC)[C@H](c1ccc(OC)c(OC/C=C(\C)CC/C=C(\C)CCC=C(C)C)c1)[C@H]1C(=O)OC[C@@H]1C2 (racemic)	–	3.76	5.63	–
COc1cc2c(cc1OC)[C@H](c1ccc(OCc3ccccc3)c(OC)c1)[C@H]1C(=O)OC[C@@H]1C2 (racemic)	–	2.65	14.8	–
COC(=O)[C@H]1[C@H](CO)Cc2cc(OC)c(OC)c(OC)c2[C@@H]1c1ccc(OC/C=C(\C)CCC=C(C)C)c(OC)c1 (racemic)	4.54	–	–	–
COC(=O)[C@H]1[C@H](CO)Cc2cc(OC)c(OC)c(OC)c2[C@@H]1c1ccc(O)c(OC)c1 (racemic)	–	–	–	14.5
